In the supplement of paper PMC10627819:

Experiments:
B. subtilis 168 [1] = assay: fitness (endpoint OD595 vs no drug) (fraction); higher = more growth
Procedure, shortened: (§1)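 Fitness compares growth at the stationary-phase transition with the robust mean of no-drug control wells, as a ratio of optical densities. The ratio is capped at 1. Wells of 384-well plates held 30 µl, or 55 µl for S. pneumoniae, inoculated at OD595 0.01. Readings at OD595 every 30 min for 14 h at 37 °C were corrected against the first reading.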

S. aureus DSM 20231 [2] = assay: as above
Procedure, shortened: as §1

S. aureus Newman [3] = assay: as above
Procedure, shortened: as §1

S. pneumoniae D39V [4] = assay: as above
Procedure, shortened: as §1

B. subtilis 168 [5] = assay: Bliss interaction score (quartile over a dose matrix) (fitness difference); higher = more antagonism (negative = synergy)
Procedure, shortened: (§2)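 The Bliss score is observed minus expected fitness under the product model, reported as quartiles over technical, biological and donor/recipient replicates. Fitness is the OD595 at entry into stationary phase divided by the plate's robust no-drug mean and capped at 1. Single-drug fitness was inferred from combination data.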

S. aureus DSM 20231 [6] = assay: as above
Procedure, shortened: as §2

S. aureus Newman [7] = assay: as above
Procedure, shortened: as §2

S. pneumoniae D39V [8] = assay: as above
Procedure, shortened: as §2
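For Bliss interaction score (quartile over a dose matrix) in this document: first quartile when negative (synergy) and third quartile when positive (antagonism).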

CCC[C@@H]1C[C@@H](C(=O)N[C@@H]([C@H]2O[C@H](SC)[C@H](O)[C@@H](O)[C@H]2O)[C@H](C)Cl)N(C)C1 [Clindamycin] + CN[C@@H]1[C@H](O)[C@H](NC)[C@H]2O[C@@]3(O)C(=O)C[C@@H](C)O[C@H]3O[C@@H]2[C@H]1O [Spectinomycin]
one replicate
Settings	fitness
B. subtilis 168 [1], first compound 0.0039 µg/mL, partner 2 µg/mL	0.988
B. subtilis 168 [1], first compound 0.0039 µg/mL, partner 4 µg/mL	0.98
B. subtilis 168 [1], first compound 0.0039 µg/mL, partner 8 µg/mL	≥ 1
B. subtilis 168 [1], first compound 0.0078 µg/mL, partner 2 µg/mL	0.897
B. subtilis 168 [1], first compound 0.0078 µg/mL, partner 4 µg/mL	0.898
B. subtilis 168 [1], first compound 0.0078 µg/mL, partner 8 µg/mL	0.904
B. subtilis 168 [1], first compound 0.0156 µg/mL, partner 2 µg/mL	0.904
B. subtilis 168 [1], first compound 0.0156 µg/mL, partner 4 µg/mL	0.903
B. subtilis 168 [1], first compound 0.0156 µg/mL, partner 8 µg/mL	0.851
S. aureus DSM 20231 [2], first compound 0.0312 µg/mL, partner 32 µg/mL	0.105
S. aureus DSM 20231 [2], first compound 0.0312 µg/mL, partner 64 µg/mL	0.0235
S. aureus DSM 20231 [2], first compound 0.0625 µg/mL, partner 32 µg/mL	0.0623
S. aureus DSM 20231 [2], first compound 0.0625 µg/mL, partner 64 µg/mL	0.0291
S. aureus DSM 20231 [2], first compound 0.125 µg/mL, partner 32 µg/mL	0.0592
S. aureus DSM 20231 [2], first compound 0.125 µg/mL, partner 64 µg/mL	0.0326
S. aureus Newman [3], first compound 0.0312 µg/mL, partner 32 µg/mL	0.0927
S. aureus Newman [3], first compound 0.0312 µg/mL, partner 64 µg/mL	0.0581
S. aureus Newman [3], first compound 0.0625 µg/mL, partner 32 µg/mL	0.0269
S. aureus Newman [3], first compound 0.0625 µg/mL, partner 64 µg/mL	0.0621
S. aureus Newman [3], first compound 0.125 µg/mL, partner 32 µg/mL	0.0191
S. aureus Newman [3], first compound 0.125 µg/mL, partner 64 µg/mL	0.0457
S. pneumoniae D39V [4], first compound 0.015 µg/mL, partner 4 µg/mL	0.935
S. pneumoniae D39V [4], first compound 0.015 µg/mL, partner 8 µg/mL	0.899
S. pneumoniae D39V [4], first compound 0.03 µg/mL, partner 4 µg/mL	0.765
S. pneumoniae D39V [4], first compound 0.03 µg/mL, partner 8 µg/mL	0.754
S. pneumoniae D39V [4], first compound 0.06 µg/mL, partner 4 µg/mL	0.657
S. pneumoniae D39V [4], first compound 0.06 µg/mL, partner 8 µg/mL	0.671

fitness
Settings	partner 2 µg/mL	partner 4 µg/mL	partner 8 µg/mL	partner 16 µg/mL
B. subtilis 168 [1], first compound 0.0625 µg/mL	0.508	0.46	0.383	–
B. subtilis 168 [1], first compound 0.125 µg/mL	0.37	0.365	0.251	–
B. subtilis 168 [1], first compound 0.25 µg/mL	0.363	0.327	0.155	–
S. aureus DSM 20231 [2], first compound 0.125 µg/mL	–	0.0615	0.0809	0.0399
S. aureus Newman [3], first compound 0.0312 µg/mL	–	0.564	0.579	0.466
S. aureus Newman [3], first compound 0.125 µg/mL	–	0.0748	0.109	0.0841
S. pneumoniae D39V [4], first compound 0.0125 µg/mL	–	0.672	0.656	0.601
S. pneumoniae D39V [4], first compound 0.025 µg/mL	–	0.457	0.409	0.396
S. pneumoniae D39V [4], first compound 0.05 µg/mL	–	0.248	0.231	0.19

Settings	Bliss interaction score
B. subtilis 168 [5]	-0.0853
S. aureus DSM 20231 [6]	-0.0511
S. aureus Newman [7]	-0.147
S. pneumoniae D39V [8]	0.0544

CCC[C@@H]1C[C@@H](C(=O)N[C@@H]([C@H]2O[C@H](SC)[C@H](O)[C@@H](O)[C@H]2O)[C@H](C)Cl)N(C)C1 [Clindamycin] + COc1c(N2C[C@@H]3CCCN[C@@H]3C2)c(F)cc2c(=O)c(C(=O)O)cn(C3CC3)c12 [Moxifloxacin]
fitness, one replicate
Settings	first compound 0.0039 µg/mL	first compound 0.0078 µg/mL	first compound 0.0156 µg/mL	first compound 0.0312 µg/mL	first compound 0.0625 µg/mL	first compound 0.125 µg/mL
B. subtilis 168 [1], partner 0.0312 µg/mL	0.73	0.575	0.5	–	–	–
B. subtilis 168 [1], partner 0.0625 µg/mL	0.061	0.05	0.0579	–	–	–
B. subtilis 168 [1], partner 0.125 µg/mL	0.0192	0.0118	0.0291	–	–	–
S. aureus DSM 20231 [2], partner 0.06 µg/mL	–	–	–	0.628	0.628	0.109
S. aureus DSM 20231 [2], partner 0.12 µg/mL	–	–	–	0.515	0.516	0.0784

Settings	fitness
B. subtilis 168 [1], first compound 0.0625 µg/mL, partner 0.0312 µg/mL	0.0693
B. subtilis 168 [1], first compound 0.0625 µg/mL, partner 0.0625 µg/mL	0.0631
B. subtilis 168 [1], first compound 0.0625 µg/mL, partner 0.125 µg/mL	0.046
B. subtilis 168 [1], first compound 0.0625 µg/mL, partner 2 µg/mL	0.0362
B. subtilis 168 [1], first compound 0.0625 µg/mL, partner 4 µg/mL	0.0401
B. subtilis 168 [1], first compound 0.0625 µg/mL, partner 8 µg/mL	0.0456
B. subtilis 168 [1], first compound 0.125 µg/mL, partner 0.0312 µg/mL	0.0619
B. subtilis 168 [1], first compound 0.125 µg/mL, partner 0.0625 µg/mL	0.0693
B. subtilis 168 [1], first compound 0.125 µg/mL, partner 0.125 µg/mL	0.0534
B. subtilis 168 [1], first compound 0.125 µg/mL, partner 2 µg/mL	0.0368
B. subtilis 168 [1], first compound 0.125 µg/mL, partner 4 µg/mL	0.0309
B. subtilis 168 [1], first compound 0.125 µg/mL, partner 8 µg/mL	0.0299
B. subtilis 168 [1], first compound 0.25 µg/mL, partner 0.0312 µg/mL	0.0478
B. subtilis 168 [1], first compound 0.25 µg/mL, partner 0.0625 µg/mL	0.0597
B. subtilis 168 [1], first compound 0.25 µg/mL, partner 0.125 µg/mL	0.0484
B. subtilis 168 [1], first compound 0.25 µg/mL, partner 2 µg/mL	0.0444
B. subtilis 168 [1], first compound 0.25 µg/mL, partner 4 µg/mL	0.0401
B. subtilis 168 [1], first compound 0.25 µg/mL, partner 8 µg/mL	0.0192
S. aureus DSM 20231 [2], first compound 0.0625 µg/mL, partner 0.0075 µg/mL	0.0874
S. aureus DSM 20231 [2], first compound 0.0625 µg/mL, partner 0.015 µg/mL	0.0867
S. aureus DSM 20231 [2], first compound 0.125 µg/mL, partner 0.0075 µg/mL	0.0621
S. aureus DSM 20231 [2], first compound 0.125 µg/mL, partner 0.015 µg/mL	0.0276
S. aureus DSM 20231 [2], first compound 0.125 µg/mL, partner 0.03 µg/mL	0.0423
S. aureus Newman [3], first compound 0.0312 µg/mL, partner 0.0075 µg/mL	0.63
S. aureus Newman [3], first compound 0.0312 µg/mL, partner 0.015 µg/mL	0.553
S. aureus Newman [3], first compound 0.0625 µg/mL, partner 0.015 µg/mL	0.361
S. aureus Newman [3], first compound 0.0625 µg/mL, partner 0.03 µg/mL	0.251
S. aureus Newman [3], first compound 0.125 µg/mL, partner 0.0075 µg/mL	0.111
S. aureus Newman [3], first compound 0.125 µg/mL, partner 0.015 µg/mL	0.0621
S. aureus Newman [3], first compound 0.125 µg/mL, partner 0.03 µg/mL	0.0456
S. pneumoniae D39V [4], first compound 0.0125 µg/mL, partner 0.0312 µg/mL	0.182
S. pneumoniae D39V [4], first compound 0.0125 µg/mL, partner 0.0625 µg/mL	0.0996
S. pneumoniae D39V [4], first compound 0.0125 µg/mL, partner 0.125 µg/mL	0.0702
S. pneumoniae D39V [4], first compound 0.015 µg/mL, partner 0.005 µg/mL	0.87
S. pneumoniae D39V [4], first compound 0.015 µg/mL, partner 0.01 µg/mL	0.932
S. pneumoniae D39V [4], first compound 0.015 µg/mL, partner 0.02 µg/mL	0.88
S. pneumoniae D39V [4], first compound 0.025 µg/mL, partner 0.0312 µg/mL	0.13
S. pneumoniae D39V [4], first compound 0.025 µg/mL, partner 0.0625 µg/mL	0.107
S. pneumoniae D39V [4], first compound 0.025 µg/mL, partner 0.125 µg/mL	0.067
S. pneumoniae D39V [4], first compound 0.03 µg/mL, partner 0.005 µg/mL	0.778
S. pneumoniae D39V [4], first compound 0.03 µg/mL, partner 0.01 µg/mL	0.798
S. pneumoniae D39V [4], first compound 0.03 µg/mL, partner 0.02 µg/mL	0.744
S. pneumoniae D39V [4], first compound 0.05 µg/mL, partner 0.0312 µg/mL	0.0658
S. pneumoniae D39V [4], first compound 0.05 µg/mL, partner 0.0625 µg/mL	0.0748
S. pneumoniae D39V [4], first compound 0.05 µg/mL, partner 0.125 µg/mL	0.0719
S. pneumoniae D39V [4], first compound 0.06 µg/mL, partner 0.005 µg/mL	0.627
S. pneumoniae D39V [4], first compound 0.06 µg/mL, partner 0.01 µg/mL	0.674
S. pneumoniae D39V [4], first compound 0.06 µg/mL, partner 0.02 µg/mL	0.606

Settings	Bliss interaction score
B. subtilis 168 [5]	0.041
S. aureus DSM 20231 [6]	0.0751
S. aureus Newman [7]	0.0705
S. pneumoniae D39V [8]	0.0859
